Experimental data taken from US20200230126A1, “TARGETED THERAPEUTICS” (TARVEDA THERAPEUTICS, INC., priority 2017, published 2020).

What was measured:
[1] = Head-to-head in-use test, 0.9% Sodium Chloride dosing solution in IV bag and IV line with rocking; format: physicochemical; design: key to appearance: Conforms = clear and essentially free of visible particles; details: for appearance: 0.6 mg/mL in Sodium Chloride
Experimental: A head-to-head in-use test of the SDC-TRAP-0063 Sodium 0.9% Sodium Chloride and 5% Mannitol dosing solutions was conducted. This study was intended to directly compare the two based on the specific clinical use direction for each diluent. In this study, the respective IV bags, syringes and IV lines were subjected to a rocking motion during the hold periods to mimic a worst case scenario for agitation of the dosing solution.
The 0.9% Sodium Chloride dosing solution was tested in an IV bag and IV line and at 0.6 mg/mL of SDC-TRAP-0063 Sodium as used in the clinic during the product complaint, with a designed 4 hour hold period followed by a 2-hour simulated infusion using a peristaltic pump (Table 5).

[2] = pH of reconstituted solution and dosing solutions; format: physicochemical
Experimental: The reconstituted solution of SDC-TRAP-0063 Sodium has a pH of about 10.0. This solution is diluted to the target dose in 5% Mannitol, USP. The pH of the infusion solution depends on the concentration of SDC-TRAP-0063 Sodium in the diluted infusion solution. Across the dose ranges employed in the clinical study protocol, the volume of the diluted infusion solution administered will range from 50 to 500 mL, and the pH will range from 8.1 to 9.6. In order to reduce the potential risks of injection site pain and/or damage to the venous endothelium during IV administration, a central venous access line is used for administration of the diluted SDC-TRAP-0063 Sodium.
A new, more robust and patient-friendly formulation of dosing solution was developed. During this development, it was established that the pH of the dosing solution is driven by the concentration of SDC-TRAP-0063 Sodium and increasing the SDC-TRAP-0063 Sodium concentration allows better control of the solubility and pH of dosing solutions.
It is believed that a common ion effect is decreasing the solubility of SDC-TRAP-0063 Sodium in 0.9% Sodium Chloride solution.

## CCc1c2c(nc3ccc(OC(=O)N4CCC(CCn5ccc6cc(-n7c(O)nnc7-c7cc(C(C)C)c(O)cc7O)ccc65)CC4)cc13)-c1cc([C@@](O)(CC)C(=O)[O-])c(CO)c(=O)n1C2.[Na+] [SDC-TRAP-0063 Sodium, Sodium (S)-2-(2-((4-(2-(5-(3-(2,4-dihydroxy-5-isopropylphenyl)-5-hydroxy-4H-1,2,4-triazol-4-yl)-1H-indol-1-yl)ethyl)piperidine-1-carbonyl)oxy)-12-ethyl-8-(hydroxymethyl)-9-oxo-9,11-dihydroindolizino[1,2-b]quinolin-7-yl)-2-hydroxybutanoate]
[1]; 0.6 mg/mL in 0.9% Sodium Chloride, 2-hour simulated infusion, peristaltic pump
  termination of the simulated infusion after onset due to occlusion of the in-line filter: ≤ 1 h
[1]; 0.6 mg/mL in 0.9% Sodium Chloride, 4 hour hold period, rocking
  precipitation during the hold period: Precipitation was observed in both the IV bag and IV line
[1]; Bulk solution, at termination, collected after in line filter
  appearance: Conforms^1
[1]; Drip Chamber of the IV Administration set, less than 1 hour (infusion terminated)
  appearance: Hazy with fine floating
[1]; IV Administration set, 0 hours, collected after in line filter
  appearance: Conforms^1
[1]; IV bag, 0 hours
  appearance: Conforms^1
[1]; IV bag, 2 hours
  appearance: Slightly hazy solution
[1]; IV bag, 4 hours, collected after in line filter
  appearance: Conforms^1
[2]; 0.9% Sodium chloride
  pH observed for dosing solutions: 8.6-8.7
[2]; 5% Mannitol
  pH range observed for dosing solutions: 9.4-10.2
[2]; 5% Mannitol, concentrations from 3-12 mg/mL
  observed pH for all dosing solutions: ≥ 9.4
